Assay results taken from PubChem BioAssay AID206 (DTP/NCI, 2004).
Values joined by “and” are separate entries in the source; they are usually repeats but may differ in a detail not shown here. Equal values may be shown once. Inconclusive results are not listed.

Test system: nude mice, HT29 intrarenal xenograft, tumor weight T/C
Experiment: NCI In Vivo Anticancer Drug Screen. Data for tumor model HT29;CX-1 Human Adenocarcinoma (MER+) (intrarenal inoculation) in NU/NU Swiss (nude) mice
Details: endpoint: mean tumor weight change, higher = larger tumour
In short: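 Compounds were given to mice carrying transplantable tumors; a vehicle-dosed group served as control. The endpoint measured in each group was compared as a T/C quotient.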

[1] = dose: 150.0 mg/kg/injection, schedule: Q04DX004 (sc), vehicle: Klucel (hydroxypropylcellulose) (HPC)
[2] = dose: 300.0 mg/kg/injection, schedule: Q04DX004 (sc), vehicle: Klucel (hydroxypropylcellulose) (HPC)
[3] = dose: 600.0 mg/kg/injection, schedule: Q04DX004 (sc), vehicle: Klucel (hydroxypropylcellulose) (HPC)
[4] = dose: 1200.0 mg/kg/injection, schedule: Q04DX004 (sc), vehicle: Klucel (hydroxypropylcellulose) (HPC)
[5] = dose: 200.0 mg/kg/injection, schedule: Q04DX004 (sc), vehicle: saline with Tween-80
[6] = dose: 100.0 mg/kg/injection, schedule: Q04DX004 (sc), vehicle: saline with Tween-80
[7] = dose: 400.0 mg/kg/injection, schedule: Q04DX004 (sc), vehicle: saline with Tween-80
[8] = dose: 800.0 mg/kg/injection, schedule: Q01DX010 (sc), vehicle: saline
[9] = dose: 37.5 mg/kg/injection, schedule: Q04DX004 (sc), vehicle: saline with Tween-80
[10] = dose: 75.0 mg/kg/injection, schedule: Q04DX004 (sc), vehicle: saline with Tween-80
[11] = dose: 150.0 mg/kg/injection, schedule: Q04DX004 (sc), vehicle: saline with Tween-80
[12] = dose: 300.0 mg/kg/injection, schedule: Q04DX004 (sc), vehicle: saline
[13] = dose: 600.0 mg/kg/injection, schedule: Q04DX004 (sc), vehicle: saline
[14] = dose: 1200.0 mg/kg/injection, schedule: Q04DX004 (sc), vehicle: saline
[15] = dose: 2400.0 mg/kg/injection, schedule: Q04DX004 (sc), vehicle: saline
[16] = dose: 300.0 mg/kg/injection, schedule: Q04DX004 (sc), vehicle: saline with Tween-80
[17] = dose: 75.0 mg/kg/injection, schedule: Q04DX004 (sc), vehicle: Klucel (hydroxypropylcellulose) (HPC)

## Cc1ccc(C(=O)[O][Hg][CH2]C2COC([CH2][Hg][O]C(=O)c3ccc(C)cc3)CO2)cc1 (configuration not stated)
[1]
  T/C: 87 % of control
[2]
  T/C: 51 % of control
[3]
  T/C: 47 % of control
[4]
  T/C: 42 % of control

## BrCC[Se]c1ccccc1
[5]
  T/C: 16 % of control

## Nc1cc2c3c(cccc3c1)C(=O)N(CCN1CCCC1)C2=O
dose: 50.0 mg/kg/injection, schedule: Q04DX004 (sc), vehicle: saline with Tween-80
  T/C: 170 % of control
[6]
  T/C: 202 % of control
[5]
  T/C: 233 % of control
[7]
  T/C: 177 % of control

## Oc1cc2c3c(c1)c1cc4c(cc1c[n+]3CC2)OCO4
dose: 100.0 mg/kg/injection, schedule: Q04DX004 (sc), vehicle: water
  T/C: 53 % of control
dose: 200.0 mg/kg/injection, schedule: Q04DX004 (sc), vehicle: water
  T/C: 61 % of control
dose: 400.0 mg/kg/injection, schedule: Q04DX004 (sc), vehicle: water
  T/C: 73 % of control

## CC(=O)NCCCCCCNC(C)=O
dose: 200.0 mg/kg/injection, schedule: Q01DX010 (sc), vehicle: saline
  T/C: 88 % of control
[8]
  T/C: 95 % of control
dose: 1600.0 mg/kg/injection, schedule: Q01DX010 (sc), vehicle: saline
  T/C: 97 % of control and 117 % of control
dose: 3200.0 mg/kg/injection, schedule: Q01DX010 (sc), vehicle: saline
  T/C: 110 % of control

## O=C1C=C[C@H](O)[C@@]2(CO)O[C@@H]12
dose: 6.25 mg/kg/injection, schedule: Q04DX004 (sc), vehicle: saline with Tween-80
  T/C: 109 % of control
dose: 12.5 mg/kg/injection, schedule: Q04DX004 (sc), vehicle: saline with Tween-80
  T/C: 82 % of control

## Clc1cc(Cl)c(C[N+]23CN4CN(CN(C4)C2)C3)cc1Cl
[9]
  T/C: 85 % of control
[10]
  T/C: 95 % of control
[11]
  T/C: 68 % of control

## CCCCn1cnc2c(=S)nc[nH]c21
dose: 150.0 mg/kg/injection, schedule: Q04DX004 (sc), vehicle: suspension in saline
  T/C: 68 % of control
dose: 300.0 mg/kg/injection, schedule: Q04DX004 (sc), vehicle: suspension in saline
  T/C: 120 % of control
dose: 600.0 mg/kg/injection, schedule: Q04DX004 (sc), vehicle: suspension in saline
  T/C: 150 % of control

## O=C(O)C1CSCN1 (configuration not stated)
dose: 50.0 mg/kg/injection, schedule: Q01DX010 (sc), vehicle: water
  T/C: 96 % of control
dose: 100.0 mg/kg/injection, schedule: Q01DX010 (sc), vehicle: water
  T/C: 105 % of control

## c1cnc2ncncc2n1
dose: 25.0 mg/kg/injection, schedule: Q01DX010 (sc), vehicle: saline with Tween-80
  T/C: 62 % of control
dose: 50.0 mg/kg/injection, schedule: Q01DX010 (sc), vehicle: saline with Tween-80
  T/C: 70 % of control
dose: 100.0 mg/kg/injection, schedule: Q01DX010 (sc), vehicle: saline with Tween-80
  T/C: 28 % of control

## Nc1nc([Se])c2ncn(C3OC(CO)C(O)C3O)c2n1 (configuration not stated)
dose: 2.0 mg/kg/injection, schedule: Q01DX010 (sc), vehicle: saline
  T/C: 98 % of control
dose: 8.0 mg/kg/injection, schedule: Q01DX010 (sc), vehicle: saline
  T/C: 242 % of control
dose: 16.0 mg/kg/injection, schedule: Q01DX010 (sc), vehicle: saline
  T/C: 202 % of control

## O=c1oc2c(O)c(O)cc3c(=O)oc4c(O)c(O)cc1c4c23
[1]
  T/C: 93 % of control
[3]
  T/C: 161 % of control
[4]
  T/C: 201 % of control

## CN1c2c(nc(N)[nH]c2=O)NCC1CCNc1ccc(C(=O)NC(CCC(=O)O)C(=O)O)cc1 (configuration not stated)
dose: 400.0 mg/kg/injection, schedule: Q01DX010 (sc), vehicle: saline
  T/C: 33 % of control
[8]
  T/C: 51 % of control

## C1OCN2CSCC12 (configuration not stated)
[6]
  T/C: 39 % of control
[5]
  T/C: 80 % of control
[7]
  T/C: 46 % of control

## Nc1ncnc2c1ncn2C1C=C(CO)C(O)C1O (configuration not stated)
dose: 3.75 mg/kg/injection, schedule: Q04DX004 (sc), vehicle: saline
  T/C: 76 % of control
dose: 7.5 mg/kg/injection, schedule: Q04DX004 (sc), vehicle: saline
  T/C: 103 % of control
dose: 15.0 mg/kg/injection, schedule: Q04DX004 (sc), vehicle: saline
  T/C: 81 % of control

## O=c1ncccn1[C@@H]1O[C@H](CO)[C@H](O)C1O (some centres not stated)
[12]
  T/C: 110 % of control
[13]
  T/C: 87 % of control
[14]
  T/C: 51 % of control
[15]
  T/C: 55 % of control

## CCCCCCCC(=O)[O][Hg][CH2]C1COC([CH2][Hg][O]C(=O)CCCCCCC)CO1 (configuration not stated)
[9]
  T/C: 110 % of control
[10]
  T/C: 120 % of control
[11]
  T/C: 47 % of control
[16]
  T/C: 51 % of control

## C[C@H](N)C(=O)N[C@@H]1[C@H]2C(=C(O)C[C@@H](O)[C@@H]2O)C(=O)O[C@@H]1C
[12]
  T/C: 107 % of control
[13]
  T/C: 81 % of control
[14]
  T/C: 68 % of control
[15]
  T/C: 92 % of control

## CCOC(=O)C(CC(C)C)NC(=O)C(Cc1ccc(N(CCCl)CCCl)cc1)NC(C)=O (configuration not stated)
dose: 12.5 mg/kg/injection, schedule: Q01DX010 (sc), vehicle: saline with Tween-80
  T/C: 66 % of control and 87 % of control
[7]
  T/C: 62 % of control
dose: 800.0 mg/kg/injection, schedule: Q04DX004 (sc), vehicle: saline with Tween-80
  T/C: 32 % of control
dose: 1200.0 mg/kg/injection, schedule: Q04DX004 (sc), vehicle: saline with Tween-80
  T/C: 29 % of control

## C[C@]12CC[C@H](O)CC1=CC[C@@H]1[C@@H]2CC[C@]2(C)C(=O)CC[C@@H]12
[10]
  T/C: 110 % of control
[11]
  T/C: 180 % of control
[16]
  T/C: 54 % of control
dose: 600.0 mg/kg/injection, schedule: Q04DX004 (sc), vehicle: saline with Tween-80
  T/C: 67 % of control

## F[B-](F)(F)F
dose: 225.0 mg/kg/injection, schedule: Q04DX004 (sc), vehicle: gum acacia
  T/C: 106 % of control
dose: 450.0 mg/kg/injection, schedule: Q04DX004 (sc), vehicle: gum acacia
  T/C: 85 % of control
dose: 900.0 mg/kg/injection, schedule: Q04DX004 (sc), vehicle: gum acacia
  T/C: 69 % of control

## CC(C)(C)c1ccc(CN2CCN(C(c3ccccc3)c3ccc(Cl)cc3)CC2)cc1 (configuration not stated)
[17]
  T/C: 78 % of control
[1]
  T/C: 74 % of control
[2]
  T/C: 88 % of control
[3]
  T/C: 93 % of control

## C[C@@](O)(/C=C/[C@H]1CC=CC(=O)O1)[C@@H](C[C@@H](O)\C=C/C=C\C=C\CO)OP(=O)(O)O
dose: 9.38 mg/kg/injection, schedule: Q04DX004 (sc), vehicle: saline
  T/C: 76 % of control
dose: 18.75 mg/kg/injection, schedule: Q04DX004 (sc), vehicle: saline
  T/C: 102 % of control
dose: 37.5 mg/kg/injection, schedule: Q04DX004 (sc), vehicle: saline
  T/C: 72 % of control

## CC(C)NC(=O)N(CCCCBr)N=O
[17]
  T/C: 174 % of control
[1]
  T/C: 182 % of control
[2]
  T/C: 91 % of control
[3]
  T/C: 108 % of control

## COC1=C(N)C(=O)c2nc(-c3nc(C(=O)O)c(C)c(-c4ccc(OC)c(OC)c4O)c3N)ccc2C1=O
dose: 0.13 mg/kg/injection, schedule: Q01DX010 (sc), vehicle: saline
  T/C: -33 % of control
dose: 0.5 mg/kg/injection, schedule: Q01DX010 (sc), vehicle: saline
  T/C: -10 % of control

## CC1=CC2c3cccc4[nH]cc(c34)CC2N(C)C1 (configuration not stated)
dose: 12.5 mg/kg/injection, schedule: Q04DX004 (sc), vehicle: suspension in saline
  T/C: 85 % of control
dose: 25.0 mg/kg/injection, schedule: Q04DX004 (sc), vehicle: suspension in saline
  T/C: 61 % of control
dose: 50.0 mg/kg/injection, schedule: Q04DX004 (sc), vehicle: suspension in saline
  T/C: 90 % of control

## CCC1(O)CC2CN(CCc3c([nH]c4ccccc34)C(C(=O)OC)(c3cc4c(cc3OC)N(C)C3C(O)(C(N)=O)C(O)C5(CC)C=CCN6CCC43C65)C2)C1 (configuration not stated) (tested in a mixture with another compound)
dose: 1.5 mg/kg/injection, schedule: Q04DX004 (sc), vehicle: water
  T/C: 87 % of control
dose: 12.0 mg/kg/injection, schedule: Q04DX004 (sc), vehicle: water
  T/C: -25 % of control

## CCc1ncnc2cc(OCC3CO3)c(OC)cc12 (configuration not stated)
dose: 25.0 mg/kg/injection, schedule: Q04DX004 (sc), vehicle: saline
  T/C: 69 % of control
dose: 50.0 mg/kg/injection, schedule: Q04DX004 (sc), vehicle: saline
  T/C: 36 % of control
dose: 100.0 mg/kg/injection, schedule: Q04DX004 (sc), vehicle: saline
  T/C: 80 % of control
